Test results taken from US11712458B2, “Degradation of Bruton's tyrosine kinase (BTK) by conjugation of BTK inhibitors with E3 ligase ligand and methods of use” (DANA-FARBER CANCER INSTITUTE, INC., priority 2018, dated 2023).

System: patient-derived mantle cell lymphoma (MCL) cells (DFBL-96069)
Assay: Patient-derived xenograft MCL mouse model
Format: in vivo
Conditions: NSG mice grafted with MCL cells, IP, QD, 50 mg/kg, two weeks; FIG. 5
Procedure: NSG Mice were grafted with patient-derived mantle cell lymphoma (MCL) cells (DFBL-96069). Once burden of disease reached ˜2%, treatment began with indicated compounds: vehicle (IP, BID), Compound I-1 (IP, QD, 50 mg/kg), lenalidomide (IP, QD, 50 mg/kg), and ibrutinib (PO, QD, 30 mg/kg). Mice were treated for two weeks and 4-6 hours after the last dose, peripheral blood was taken and quantified for disease burden via flow cytometry.

Cc1c(NC(=O)c2ccc(C(C)(C)C)cc2)cccc1-c1cn(C)c(=O)c(Nc2ccc(C(=O)N3CCN(CCCCCCNC(=O)CNc4cccc5c4C(=O)N(C4CCC(=O)NC4=O)C5=O)CC3)cc2)n1 (stereo not shown) [II-1]
Efficacy (disease burden in peripheral blood via flow cytometry): showed efficacy
